Results as given in patent US20240279612A1, “LIVER ORGANOID MANUFACTURING METHODS, LIVER ORGANOIDS OBTAINED WITH THE SAME, AND USES THEREOF” (INSTITUT NATIONAL DE LA SANTÉ ET DE LA RECHERCHE MÉDICALE, priority 2021, published 2024).
Like-named read-outs stand apart in the source and are kept apart here.

Columns and labels:
[1] = tested on: liver organoid (LO); conditions: 48 h
Protocol: Steatosis was induced by amiodarone at 20 μM or ethanol at […] for 2 days after the end of differentiation (Day 28). After fixation of the cells with paraformaldehyde (PFA 4% in PBS) for 15 minutes at room temperature, the lipids were labelled with Nile Red (50 ng/ml) for 1 hour at room temperature and then washed three times with PBS (1000 μl). At this step, samples can be stored in PBS at 4° C.
(§1) After the acquisition of different Z-stacks of the LOs, the images were analyzed and quantified by the image analysis software Metaxpress developed by Molecular Devices.

[2] = tested on: CYP2B6; assay: Induction of CYP2B6 activity (bupropion to hydroxybupropion, LC-MS/MS) in PHH; conditions: PHH model, versus basal (DMSO 0.1%)
Protocol: (§2) The primary human hepatocyte (PHH) cell line was obtained from four different healthy donors. PHH cells culture was performed according to the LONZA protocol (described in Document #BR-CryoHep-1 07/20 www.bioscience.lonza.com © 2020 Lonza Walkersville, Inc) with cell seeding at 70,000 cells/well in collagen I-coated 96-well plates (Corning® BioCoat™ Collagen I 96 Clear Well Plate). One hour after seeding, the PHH cells were cultured by the Sandwich method using Matrigel (Corning® Matrigel® Matrix) according to the protocol described in Gijbels et al. (Experimental Cholestasis Research, 2019). PHH cells were used 3 days later (short duration) or 2 weeks later (long duration) for the experiments. PHH cell line was cultivated at 37° C. in a humidified atmosphere with 5% CO2.
(§3) PHH and LO grown in 96-well plates were treated by adding 200 μl/well and HLCs in 6-well plates by adding 1 ml/well of CYP's inductors in a hepatocyte culture medium (HCM) without EGF (Lonza—CC-3198).
(§4) CYPs were induced by different types of inducers (SIGMA) at different concentrations for 3 days (as detailed in TABLE 3): Omeprazole (50 μM), Rifampicin (10 μM), Imidazole (500 μM), Phenobarbital (500 μM) and CITCO (1 μM). A control condition (namely “basal”) is performed with DMSO […] instead of inducer. […]

[3] = tested on: liver organoid (LO); assay: Internalization of LDL-bodipy by liver organoids; format: cell-based, human; conditions: 20 hours, then 3 hours LDL-bodipy, compared to controls (FIG. 2)
Protocol: Treatment with mevastatin (20, 25 and 30 μg/ml) or DMSO (0.1%) was performed for 20 hours after the end of differentiation (Day 28). After treatment, LOs were incubated with LDL-bodipy (Invitrogen, Ref: L3483) for 3 hours (INVITROGEN). Finally, once the incubation with LDL-bodipy was completed, the scaffolds were washed three times with HCM medium (LONZA) at 37° C. and then the cells were fixed with paraformaldehyde (PFA 4% in PBS) for 15 minutes at room temperature. At this stage, the samples can be stored in PBS at 4° C.
as §1
Concerning LDL internalization, it was noted that the LO model significatively reacted to mevastatin at concentrations of 20, 25 and 30 ug/ml with an increase in LDL-bodipy internalization of 14, 18 and 26% respectively compared to controls (FIG. 2).

[4] = tested on: CYP1A2; assay: Induction of CYP1A2 activity (phenacetin to acetaminophen, LC-MS/MS) in PHH; format: in vitro ADME, human; conditions: PHH model, omeprazole 50 μM for 3 days, versus basal (DMSO 0.1%)
Protocol: as §2, §3, §4

SMILES: CCCCc1oc2ccccc2c1C(=O)c1cc(I)c(OCCN(CC)CC)c(I)c1 [amiodarone]
- increase in lipid accumulation ([1]; 40 µM): 60%

SMILES: Clc1ccc(-c2nc3sccn3c2/C=N/OCc2ccc(Cl)c(Cl)c2)cc1 [CITCO]
- induction of CYP2B6 ([2]; CITCO 1 μM for 3 days): 3.3 times

SMILES: CC[C@H](C)C(=O)O[C@H]1CCC=C2C=C[C@H](C)[C@H](CC[C@@H]3C[C@@H](O)CC(=O)O3)[C@H]21 [mevastatin]
- increase in LDL-bodipy internalization ([3]; mevastatin 20 ug/ml): 14%
- increase in LDL-bodipy internalization ([3]; mevastatin 25 ug/ml): 18%
- increase in LDL-bodipy internalization ([3]; mevastatin 30 ug/ml): 26%

SMILES: COc1ccc2[nH]c([S+]([O-])Cc3ncc(C)c(OC)c3C)nc2c1 (centres unmarked) [omeprazole, Omeprazole]
- induction of CYP1A2 [4]: 7.2 times

SMILES: CCC1(c2ccccc2)C(=O)NC(=O)NC1=O [phenobarbital, Phenobarbital]
- induction of CYP2B6 ([2]; phenobarbital 500 μM for 3 days): 5.8 times

SMILES: CCO [ethanol]
- increase in lipid accumulation ([1]; 0.1 µM): 29%
